Test results taken from publication PMC9917201, “Enhanced Antibacterial Activity of Substituted Derivatives of NCR169C Peptide” (International Journal of Molecular Sciences, 2023).
Values after ≈ are worked out from the molar mass of the structure shown. Like-named read-outs stand apart in the source and are kept apart here. Non-standard residues stand in square brackets, D forms with d. Residues, ends and D or L forms follow the SMILES beside them. ξ: configuration not given here. ξTrp(6-F) = NC(Cc1c[nH]c2cc(F)ccc12)C(=O)O

Legend:
[1] = system: Candida species; details: cited from earlier work
From the text: NCR169, a cationic peptide (net charge at pH7 is 1.91) consisting of 38 amino acids with four cysteine residues, is crucial for bacteroid differentiation, and its absence results in no nitrogen fixation but premature nodule senescence. Two NMR structures of NCR169 produced in Escherichia coli resulting from different disulfide bond patterns have been determined by utilizing the ^1H-^15N heteronuclear single-quantum coherence (HSQC) NMR technique.

[2] = system: Pseudomonas aeruginosa (ATCC 27853); assay type: cell-based; details: ATCC 27853, 3 h, pH 7.4
Method in brief: (§1)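 Log-phase bacteria (~10^7) were exposed for three hours to twofold peptide dilutions from 25 to […] in potassium-phosphate buffer at pH 7.4. Aliquots were then plated on LB agar and incubated overnight at 37 °C. The minimal bactericidal concentration was the lowest dose eliminating all viable bacteria.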

[3] = system: Salmonella enterica (ATCC 13076); assay type: cell-based
Method in brief: as §1

[4] = system: Acinetobacter baumannii (ATCC 17978); assay type: cell-based; details: ATCC 17978, 3 h, pH 7.4
Method in brief: as §1

[5] = system: Enterococcus faecalis (ATCC 29212); assay type: cell-based
Method in brief: as §1

[6] = system: Staphylococcus aureus (HNCMO112011); assay type: cell-based
Method in brief: as §1

[7] = system: Listeria monocytogenes (ATCC 19111); assay type: cell-based; details: ATCC 19111, 3 h, pH 7.4
Method in brief: as §1

[8] = system: Klebsiella pneumoniae (NCTC 13440); assay type: cell-based; details: NCTC 13440, 3 h, pH 7.4
Method in brief: as §1

[9] = system: Escherichia coli (ATCC 8739); assay type: cell-based
Method in brief: as §1

[10] = system: tested bacteria (ESKAPE pathogens, Listeria monocytogenes, Salmonella enterica); set-up: method as in PMID 32153547; details: same bacterial species; cited from earlier work
[11] = system: E. coli (ATCC 25922); assay type: cell-based, Escherichia coli; details: ATCC 25922, 3 h, pH 7.4
From the text: (§2) The bacterial strains for the antimicrobial assay were obtained from the ATCC (American Type Culture Collection, Manassas, VA, USA) and NCTC (National Collection of Type Cultures, Salisbury, UK). Gram-negative strains were Pseudomonas aeruginosa (ATCC 27853), Escherichia coli (ATCC 8739, ATCC 35218, and ATCC 25922), Salmonella enterica (ATCC 13076), Klebsiella pneumoniae (NCTC 13440), Acinetobacter baumannii (ATCC 17978) and the Gram-positive strains were Enterococcus faecalis (ATCC 29212), Listeria monocytogenes (ATCC 19111), and Staphylococcus aureus (HNCMO112011 and ATCC 25923).
(§3) Determination of antibacterial activity for the peptides was carried out by utilizing a minimum bactericidal concentration (MBC) bioassay. Synthesized peptides were dissolved in sterile water and used from 25 to 0.125 μM in 2-fold dilution series and incubated with ~10^7 log phase bacteria in Potassium-Phosphate Buffer (PPB, pH: 7.4) for three hours as described earlier. After that, 5 μl of each sample was placed on LB agar and the growth of bacteria was monitored after overnight incubation at 37 °C. The lowest concentration of the antimicrobial agents that completely eliminated viable bacteria was considered the minimal bactericidal concentration (MBC).

[12] = system: E. coli (ATCC 35218); assay type: cell-based, Escherichia coli; details: ATCC 35218, 3 h, pH 7.4
From the text: as §2, §3

[13] = system: S. aureus (ATCC 25923); assay type: cell-based, Staphylococcus aureus; details: ATCC 25923, 3 h, pH 7.4
From the text: as §2, §3

[14] = system: tested bacteria (ESKAPE pathogens, Listeria monocytogenes, Salmonella enterica); assay type: cell-based; details: 3 h, pH 7.4
Method in brief: as §1

[15] = Enterococcus faecalis ATCC 29212, ~10^7 log phase bacteria, 3 h in potassium-phosphate buffer (PPB) pH 7.4, peptide 25 to 0.125 μM 2-fold series, 5 μl on LB agar, overnight 37 °C

SMILES | antifungal activity against different Candida species [1] | Minimal bactericidal concentration (MBC) P. a. [2] | Minimal bactericidal concentration (MBC) S. e. ([3]; Salmonella enterica ATCC 13076, ~10^7 log phase bacteria, 3 h in PPB pH 7.4, peptide 25 to 0.125 μM 2-fold series, plated on LB agar, overnight 37 °C) | Minimal bactericidal concentration (MBC) A. b. [4] | Minimal bactericidal concentration (MBC) E. f. [5, 15] | Minimal bactericidal concentration (MBC) S. a. ([6]; Staphylococcus aureus HNCMO112011, ~10^7 log phase bacteria, 3 h in PPB pH 7.4, peptide 25 to 0.125 μM 2-fold series, plated on LB agar, overnight 37 °C) | Minimal bactericidal concentration (MBC) L. m. [7] | Minimal bactericidal concentration (MBC) K. p. [8] | Minimal bactericidal concentration (MBC) E. c. ([9]; ATCC 8739, 3 h, pH 7.4) | MBCs compared with the NCR169 peptide derivatives [10] | MBC E.c. ATTC 25922 [11] | MBC E.c. ATTC 35218 [12] | MBC S.a. ATTC 25923 [13] | MBC against most or all of the tested bacteria [14] | Minimal bactericidal concentration (MBC) S. e. ([3]; ATCC 13076, 3 h, pH 7.4) | Minimal bactericidal concentration (MBC) E. f. ([5]; ATCC 29212, 3 h, pH 7.4) | Minimal bactericidal concentration (MBC) S. a. ([6]; HNCMO112011, 3 h, pH 7.4) | Minimal bactericidal concentration (MBC) E. c. ([9]; Escherichia coli ATCC 8739, ~10^7 log phase bacteria, 3 h in PPB pH 7.4, peptide 25 to 0.125 μM 2-fold series, plated on LB agar, overnight 37 °C)
CC[C@H](C)[C@H](NC(=O)[C@H](CCCCN)NC(=O)[C@H](Cc1ccccc1)NC(=O)[C@H](CC(C)C)NC(=O)[C@@H]1CCCN1C(=O)[C@H](CCCCN)NC(=O)[C@H](CCCCN)NC(=O)[C@H](CO)NC(=O)[C@@H](N)CCCCN)C(=O)N[C@@H](C)C(=O)N[C@@H](CCCCN)C(=O)N[C@@H](CS)C(=O)N[C@H](C(=O)N[C@@H](CCC(=O)O)C(=O)N[C@@H](CC(N)=O)C(=O)N[C@H](C(=O)N[C@@H](CS)C(=O)N[C@H](C(=O)N[C@@H](CC(C)C)C(=O)N[C@@H](C)C(=O)N[C@@H](Cc1ccc(O)cc1)C(=O)N[C@@H](CCCCN)C(N)=O)C(C)C)C(C)C)C(C)C [NCR169C17–38W10,20/A] (H-KSKKPLFKIAKCVENVCVLAYK-NH2; N-terminus assumed) | possess antifungal activity | 3.1 µM (≈ 7.78 µg/mL) | - (-: inactive up to 25 μM) | 3.1 µM (≈ 7.78 µg/mL) | - (-: inactive up to 25 μM) | - (-: inactive up to 25 μM) | 25 µM (≈ 62.7 µg/mL) | 12.5 µM (≈ 31.4 µg/mL) | 3.1 µM (≈ 7.78 µg/mL) | – | – | – | – | – | – | – | – | –
C[C@H]1COc2c(N3CCN(C)CC3)c(F)cc3c(=O)c(C(=O)O)cn1c23 [levofloxacin] | – | – | – | – | – | – | – | – | – | either similar or 200-fold higher | – | – | – | – | – | – | – | –
CC1(C)S[C@@H]2[C@H](NC(=O)C(C(=O)O)c3ccccc3)C(=O)N2[C@H]1C(=O)O (some centres unmarked) [carbenicillin] | – | – | – | – | – | – | – | – | – | 2–4 fold | – | – | – | – | – | – | – | –
CC[C@H](C)[C@H](NC(=O)[C@H](CCCCN)NC(=O)[C@H](Cc1ccccc1)NC(=O)[C@H](CC(C)C)NC(=O)[C@@H]1CCCN1C(=O)[C@H](CCCCN)NC(=O)[C@H](CCCCN)NC(=O)[C@H](CO)NC(=O)[C@@H](N)CCCCN)C(=O)NC(Cc1c[nH]c2cc(F)ccc12)C(=O)N[C@@H](CCCCN)C(=O)N[C@@H](CO)C(=O)N[C@H](C(=O)N[C@@H](CCC(=O)O)C(=O)N[C@@H](CC(N)=O)C(=O)N[C@H](C(=O)N[C@@H](CO)C(=O)N[C@H](C(=O)N[C@@H](CC(C)C)C(=O)N[C@@H](Cc1c[nH]c2ccccc12)C(=O)N[C@@H](Cc1ccc(O)cc1)C(=O)N[C@@H](CCCCN)C(N)=O)C(C)C)C(C)C)C(C)C (some centres unmarked) [NCR169C17–38C12,17/S-10W^6-F II] (H-KSKKPLFKI[ξTrp(6-F)]KSVENVSVLWYK-NH2; N-terminus assumed) | – | 1.6 µM (≈ 4.36 µg/mL) | – | 0.8 µM (≈ 2.18 µg/mL) | – | – | 1.6 µM (≈ 4.36 µg/mL) | 1.6 µM (≈ 4.36 µg/mL) | 0.8 µM (≈ 2.18 µg/mL) | – | 0.8 µM (≈ 2.18 µg/mL) | 0.8 µM (≈ 2.18 µg/mL) | 1.6 µM (≈ 4.36 µg/mL) | 0.8 to 1.6 µM | 6.3 µM (≈ 17.2 µg/mL) | 0.8 µM (≈ 2.18 µg/mL) | 0.8 µM (≈ 2.18 µg/mL) | –
CC[C@H](C)[C@H](NC(=O)[C@H](CCCCN)NC(=O)[C@H](Cc1ccccc1)NC(=O)[C@H](CC(C)C)NC(=O)[C@@H]1CCCN1C(=O)[C@H](CCCCN)NC(=O)[C@H](CCCCN)NC(=O)[C@H](CO)NC(=O)[C@@H](N)CCCCN)C(=O)N[C@@H](Cc1c[nH]c2ccccc12)C(=O)N[C@@H](CCCCN)C(=O)N[C@@H](CO)C(=O)N[C@H](C(=O)N[C@@H](CCC(=O)O)C(=O)N[C@@H](CC(N)=O)C(=O)N[C@H](C(=O)N[C@@H](CO)C(=O)N[C@H](C(=O)N[C@@H](CC(C)C)C(=O)N[C@@H](Cc1c[nH]c2ccccc12)C(=O)N[C@@H](Cc1ccc(O)cc1)C(=O)N[C@@H](CCCCN)C(N)=O)C(C)C)C(C)C)C(C)C [NCR169C17–38C12,17/S] (H-KSKKPLFKIWKSVENVSVLWYK-NH2) | – | 3.1 µM (≈ 8.39 µg/mL) | – | 1.6 µM (≈ 4.33 µg/mL) | – | – | 3.1 µM (≈ 8.39 µg/mL) | 3.1 µM (≈ 8.39 µg/mL) | 1.6 µM (≈ 4.33 µg/mL) | – | 1.6 µM (≈ 4.33 µg/mL) | 3.1 µM (≈ 8.39 µg/mL) | 3.1 µM (≈ 8.39 µg/mL) | – | 1.6 µM (≈ 4.33 µg/mL) | 3.1 µM (≈ 8.39 µg/mL) | 1.6 µM (≈ 4.33 µg/mL) | –
CC[C@H](C)[C@H](NC(=O)[C@H](CCCCN)NC(=O)[C@H](Cc1ccccc1)NC(=O)[C@H](CC(C)C)NC(=O)[C@@H]1CCCN1C(=O)[C@H](CCCCN)NC(=O)[C@H](CCCCN)NC(=O)[C@H](CO)NC(=O)[C@@H](N)CCCCN)C(=O)N[C@@H](Cc1c[nH]c2ccccc12)C(=O)N[C@@H](CCCCN)C(=O)N[C@@H](CS)C(=O)N[C@H](C(=O)N[C@@H](CCC(=O)O)C(=O)N[C@@H](CC(N)=O)C(=O)N[C@H](C(=O)N[C@@H](CS)C(=O)N[C@H](C(=O)N[C@@H](CC(C)C)C(=O)N[C@@H](Cc1c[nH]c2ccccc12)C(=O)N[C@@H](Cc1ccc(O)cc1)C(=O)N[C@@H](CCCCN)C(N)=O)C(C)C)C(C)C)C(C)C [NCR169C17–38] (H-KSKKPLFKIWKCVENVCVLWYK-NH2; N-terminus assumed) | possess antifungal activity | 3.1 µM (≈ 8.49 µg/mL) | – | 3.1 µM (≈ 8.49 µg/mL) | 6.3 µM (≈ 17.3 µg/mL) | – | 3.1 µM (≈ 8.49 µg/mL) | 3.1 µM (≈ 8.49 µg/mL) | – | – | 1.6 µM (≈ 4.38 µg/mL) | 1.6 µM (≈ 4.38 µg/mL) | 3.1 µM (≈ 8.49 µg/mL) | 3.1 µM | 3.1 µM (≈ 8.49 µg/mL) | – | 3.1 µM (≈ 8.49 µg/mL) | 1.6 µM (≈ 4.38 µg/mL)
CC[C@H](C)[C@H](NC(=O)[C@H](CCCCN)NC(=O)[C@H](Cc1ccccc1)NC(=O)[C@H](CC(C)C)NC(=O)[C@@H]1CCCN1C(=O)[C@H](CCCCN)NC(=O)[C@H](CCCCN)NC(=O)[C@H](CO)NC(=O)[C@@H](N)CCCCN)C(=O)NC(Cc1c[nH]c2cc(F)ccc12)C(=O)N[C@@H](CCCCN)C(=O)N[C@@H](CO)C(=O)N[C@H](C(=O)N[C@@H](CCC(=O)O)C(=O)N[C@@H](CC(N)=O)C(=O)N[C@H](C(=O)N[C@@H](CO)C(=O)N[C@H](C(=O)N[C@@H](CC(C)C)C(=O)N[C@@H](Cc1c[nH]c2ccccc12)C(=O)N[C@@H](Cc1ccc(O)cc1)C(=O)N[C@@H](CCCCN)C(N)=O)C(C)C)C(C)C)C(C)C (some centres unmarked) [NCR169C17–38C12,17/S-10W^6-F I] (H-KSKKPLFKI[ξTrp(6-F)]KSVENVSVLWYK-NH2; N-terminus assumed) | – | 0.8 µM (≈ 2.18 µg/mL) | – | 1.6 µM (≈ 4.36 µg/mL) | – | – | 1.6 µM (≈ 4.36 µg/mL) | 1.6 µM (≈ 4.36 µg/mL) | 0.8 µM (≈ 2.18 µg/mL) | – | 0.8 µM (≈ 2.18 µg/mL) | 0.8 µM (≈ 2.18 µg/mL) | 1.6 µM (≈ 4.36 µg/mL) | 0.8 to 1.6 µM | 1.6 µM (≈ 4.36 µg/mL) | 1.6 µM (≈ 4.36 µg/mL) | 0.8 µM (≈ 2.18 µg/mL) | –
